# Assay results from US20240366623A1, “COMPOSITIONS FOR PREVENTING OR TREATING CHARCOT-MARIE-TOOTH DISEASE (CMT)” (Chong Kun Dang Pharmaceutical Corp., priority 2021, published 2024).
# Key:
# Format in all cases: in vivo, mouse
# [1] = tested on: C3 CMT1A mice; assay: Histopathologic evaluation of sural nerves in C3 CMT1A mice
# Protocol: (§1) Ten-week-old C3 CMT1A mice were provided with a standard diet (Central Lab Animal, Inc.) and water ad libitum and were housed in a controlled environment with a temperature of 22±2° C., a humidity of 44-56% and a 12-hour light-dark cycle. All experimental procedures were approved and performed according to the Institutional Animal Care and Use Committee (IACUC) of the Korea CKD Laboratory Animal Center (with an approved number: S-17_033).
# (§2) Vehicle is 0.5% […] (MC), and each group was administered vehicle or compound 43 for eight weeks. TG or C3 refers to C3 CMT1A mice; a wild type (WT) is a group in which only vehicle is administered to normal mice; Vehicle(C3) or C3 group is a group in which only vehicle is administered to C3 CMT1A mice; and compound 43 is a group in which compound 43 is administered to C3 CMT1A mice with five animals in each group.
# At eight weeks after administering vehicle or drug (compound 43), the sural nerves were collected at 0.5 hours after the final drug administration and then fixed overnight in 2.5% glutaraldehyde solution. The fixed samples were subjected to general tissue processing for image analysis, sectioned with a thickness of […], and stained with toluidine blue. Histological evaluation was performed on imaging files taken with an optical microscopy. In each sample, morphological changes of myelin, such as demyelination, remyelination, etc., and pathological changes, including a reduction in axon diameter, were evaluated. The axon and myelin diameters were analyzed with Image J software and a G-ratio thereof was calculated as the ratio of an internal axon diameter to a total external diameter, and the results are shown in FIGS. 21 to 23.
# Data were represented as mean±SEM. Statistical significance between groups was tested using one-way ANOVA and post hoc analysis was performed by Dunnett's test. All statistical analyses were performed with GraphPad Prism 9.0.
# [2] = tested on: C3 CMT1A mice; assay: Analysis of muscle fiber atrophy (gastrocnemius) in C3 CMT1A mice
# Protocol: as §1
# as §2, with “seven” for “eight”, “group. […]” for “group.”
# Mice were anesthetized with isoflurane and systemic perfusion through the heart was performed with saline solution (3 mL). […] The proportion of muscle fibers with atrophy was measured by dividing the number of muscle fibers with atrophy by the […], and the cross-sectional area of the muscle fibers was analyzed using NIS element software, and the results are shown in FIGS. 16 and 17.
# [3] = tested on: HSPB1^S135F CMT2F mice; assay: Histopathological analysis: axon size of sciatic nerve fiber in HSPB1^S135F CMT2F mice; settings: mean ± SEM
# Protocol: This experiment was made to confirm the effect of the compound of the present disclosure on the axon size of the sciatic nerve fiber.
# 6.5 to 8.5-month-old male HSPB1^S135F CMT2F mice were provided with a standard diet (Central Lab Animal, Inc.) and water ad libitum and were housed in a controlled environment with a temperature (22±2° C.), humidity (44-56%), and a 12-hour light-dark cycle.
# Compound 43 (1 and 10 mg/kg) of the present disclosure was orally administered repeatedly twice a day for 12 weeks. After the final treatment, the sciatic nerve was collected at 0.5 hours and fixed overnight in a 2.5% glutaraldehyde solution (340855, Sigma). A sample was transferred to the Department of Pathology in Asan Hospital for semithin sections and toluidine blue (T3260, Sigma) staining.
# The fixed sample was processed conventionally for image analysis. A […] section was prepared and stained with toluidine blue.
# A histological evaluation was performed under optical microscopy. Pathological changes including demyelination, remyelination, abnormally thin myelin, and axonal morphological change were investigated from the section. At last, an axon diameter was analyzed with Image J software.
# Data were expressed as mean±SEM. One-way ANOVA and post-hoc analysis using Dunnett's test were used for statistical significance between the HSPB1^S135F CMT2F (vehicle) group and the HSPB1^S135F CMT2F (Compound 43) group, and the paired T-test was used for statistical significance between the WT group and the HSPB1^S135F CMT2F (vehicle) group. All statistical analyses were performed with GraphPad Prism 5.0.
# [4] = 10 mg/Kg PO BID eight weeks (FIG. 21)
compound,measurement,setting,value
"O=C(N1CCS(=O)(=O)CC1)N(Cc1ccc(-c2nnc(C(F)F)o2)cn1)c1ccccc1 [Compound 43, N-((5-(5-(difluoromethyl)-1,3,4-oxadiazol-2-yl)pyridin-2-yl)methyl)-N-phenylthiomorpholine-4-carboxamide 1,1-dioxide]",axon diameter (sural nerve),[1]; [4],increased
same,myelin sheath thickness (sural nerve),[1]; [4],increased
same,slope of g-ratio (sural nerve),[1]; 10 mg/Kg PO BID eight weeks (FIG. 22),lower slope than that of vehicle-treated animals
same,proportion of axons with a large diameter (sural nerve),[1]; 10 mg/Kg PO BID eight weeks (FIG. 23),tendency to increase
same,proportion of atrophic muscle fibers,[2]; 10 mg/Kg PO BID seven weeks (FIG. 16),lowered
same,cross-sectional area of muscle fibers,[2]; 10 mg/Kg PO BID seven weeks (FIG. 17),increased
same,axons with Diameter of Axon (μm) 1-2,[3]; 1 mg/kg PO BID 12 weeks,691 ± 74
same,axons with Diameter of Axon (μm) 2-3,[3]; 1 mg/kg PO BID 12 weeks,574 ± 54
same,axons with Diameter of Axon (μm) 3-4,[3]; 1 mg/kg PO BID 12 weeks,429 ± 70
same,axons with Diameter of Axon (μm) 4-5,[3]; 1 mg/kg PO BID 12 weeks,269 ± 57
same,axons with Diameter of Axon (μm) 5-6,[3]; 1 mg/kg PO BID 12 weeks,196 ± 40
same,axons with Diameter of Axon (μm) 6-7,[3]; 1 mg/kg PO BID 12 weeks,128 ± 26
same,axons with Diameter of Axon (μm) 7-8,[3]; 1 mg/kg PO BID 12 weeks,83 ± 21
same,axons with Diameter of Axon (μm) 8-9,[3]; 1 mg/kg PO BID 12 weeks,36 ± 13
same,axons with Diameter of Axon (μm) 9-10,[3]; 1 mg/kg PO BID 12 weeks,12 ± 5
same,axons with Diameter of Axon (μm) <1,[3]; 1 mg/kg PO BID 12 weeks,273 ± 64
same,axons with Diameter of Axon (μm) >10,[3]; 1 mg/kg PO BID 12 weeks,5 ± 3
same,axons with Diameter of Axon (μm) 1-2,[3]; 10 mg/kg PO BID 12 weeks,565 ± 26
same,axons with Diameter of Axon (μm) 2-3,[3]; 10 mg/kg PO BID 12 weeks,561 ± 49
same,axons with Diameter of Axon (μm) 3-4,[3]; 10 mg/kg PO BID 12 weeks,588 ± 29
same,axons with Diameter of Axon (μm) 4-5,[3]; 10 mg/kg PO BID 12 weeks,265 ± 31
same,axons with Diameter of Axon (μm) 5-6,[3]; 10 mg/kg PO BID 12 weeks,161 ± 21
same,axons with Diameter of Axon (μm) 6-7,[3]; 10 mg/kg PO BID 12 weeks,112 ± 20
same,axons with Diameter of Axon (μm) 7-8,[3]; 10 mg/kg PO BID 12 weeks,67 ± 12
same,axons with Diameter of Axon (μm) 8-9,[3]; 10 mg/kg PO BID 12 weeks,39 ± 12
same,axons with Diameter of Axon (μm) 9-10,[3]; 10 mg/kg PO BID 12 weeks,16 ± 7
same,axons with Diameter of Axon (μm) <1,[3]; 10 mg/kg PO BID 12 weeks,124 ± 42
same,axons with Diameter of Axon (μm) >10,[3]; 10 mg/kg PO BID 12 weeks,6 ± 5
